According to ChEMBL document CHEMBL1201862, “PubChem BioAssay data set” (2004):
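Cells were grown in 96-well plates and exposed to each compound for 48 hours at five concentrations; endpoints were interpolated linearly between bracketing concentrations, or set to the highest concentration if not reached. Here, GI50 denotes the concentration required for 50% inhibition of growth.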 Calls of active or inactive are those of the source. Cut-off read from the data, not from the text of the source: active = GI50 up to about 1.1 µM and inactive = higher.

Experiments:
Assay in all cases: DTP human tumour cell line panel, 48 h
SNB-19 = test system: SNB-19
IGROV-1 = test system: IGROV-1
NCI-H23 = test system: NCI-H23
OVCAR-8 = test system: OVCAR-8
CAKI-1 = test system: CAKI-1
HL-60 = test system: HL-60
NCI-H460 = test system: NCI-H460
OVCAR-4 = test system: OVCAR-4
SR = test system: SR
UO-31 = test system: UO-31
KM12 = test system: KM12
SK-MEL-5 = test system: SK-MEL-5
SF-539 = test system: SF-539
OVCAR-3 = test system: OVCAR-3
HCC 2998 = test system: HCC 2998
Malme-3M = test system: Malme-3M

Measured: GI50

CC(=O)C1CCN(c2ccccc2)C1 (configuration not stated)
inactive: SNB-19 > 100 µM | IGROV-1 > 100 µM | NCI-H23 > 100 µM | OVCAR-8 > 100 µM | CAKI-1 > 100 µM | HL-60 > 100 µM | NCI-H460 > 100 µM | OVCAR-4 > 100 µM | SR > 100 µM | UO-31 > 100 µM | KM12 > 100 µM | SK-MEL-5 > 100 µM | SF-539 > 100 µM | OVCAR-3 > 100 µM

O=C1CSc2cc([N+](=O)[O-])ccc2N1
inactive: SNB-19 > 100 µM | IGROV-1 > 100 µM | HCC 2998 > 100 µM | NCI-H23 > 100 µM | OVCAR-8 > 100 µM | CAKI-1 > 100 µM | NCI-H460 > 100 µM | Malme-3M > 100 µM | OVCAR-4 > 100 µM | KM12 > 100 µM | SK-MEL-5 > 100 µM | SF-539 > 100 µM | OVCAR-3 > 100 µM

C[C@@H](NS(=O)(=O)c1ccc(NC(=O)c2ccccc2)cc1)C(=O)O
inactive: SNB-19 > 100 µM | IGROV-1 > 100 µM | HCC 2998 > 100 µM | NCI-H23 > 100 µM | OVCAR-8 > 100 µM | CAKI-1 > 100 µM | HL-60 > 100 µM | NCI-H460 > 100 µM | Malme-3M > 100 µM | OVCAR-4 > 100 µM | UO-31 > 100 µM | KM12 > 100 µM | SK-MEL-5 > 100 µM | SF-539 > 100 µM | OVCAR-3 > 100 µM

N#CC(C(=O)CCC(=O)Nc1ccc(Cl)cc1)c1ccc(Cl)cc1 (configuration not stated)
inactive: SNB-19 > 100 µM | IGROV-1 89.5 µM | HCC 2998 > 100 µM | NCI-H23 > 100 µM | OVCAR-8 > 100 µM | CAKI-1 92.5 µM | HL-60 > 100 µM | NCI-H460 > 100 µM | Malme-3M > 100 µM | OVCAR-4 > 100 µM | UO-31 > 100 µM | KM12 91.8 µM | SK-MEL-5 > 100 µM | SF-539 > 100 µM | OVCAR-3 > 100 µM

C[C@H](C(=O)O)C(=O)NC(=O)N(Cc1ccccc1)N=O
inactive: SNB-19 > 100 µM | IGROV-1 > 100 µM | HCC 2998 > 100 µM | OVCAR-8 > 100 µM | CAKI-1 > 100 µM | NCI-H460 > 100 µM | Malme-3M > 100 µM | OVCAR-4 > 100 µM | UO-31 > 100 µM | KM12 > 100 µM | SK-MEL-5 > 100 µM | SF-539 > 100 µM | OVCAR-3 > 100 µM

O=S(=O)(/C=C/c1ccc(Cl)cc1Cl)Cc1ccccc1CS(=O)(=O)/C=C/c1ccc(Cl)cc1Cl
inactive: SNB-19 > 100 µM | IGROV-1 > 100 µM | HCC 2998 > 100 µM | NCI-H23 > 100 µM | OVCAR-8 7.5 µM | CAKI-1 > 100 µM | NCI-H460 88.7 µM | OVCAR-4 11.9 µM | SR > 100 µM | UO-31 > 100 µM | KM12 > 100 µM | SF-539 > 100 µM | OVCAR-3 > 100 µM

CCN(CC)CC(=O)NC1c2ccccc2Oc2c(C)cccc21 (configuration not stated)
inactive: SNB-19 > 100 µM | IGROV-1 > 100 µM | HCC 2998 > 100 µM | NCI-H23 > 100 µM | OVCAR-8 > 100 µM | HL-60 37.7 µM | NCI-H460 > 100 µM | OVCAR-4 > 100 µM | SR 57.7 µM | UO-31 23.2 µM | SK-MEL-5 69.5 µM | SF-539 > 100 µM

O=C1C2C(C(=O)N1c1ccccc1)C1(c3ccccc3)OC2(c2ccccc2)c2ccccc21 (configuration not stated)
inactive: SNB-19 > 100 µM | IGROV-1 > 100 µM | HCC 2998 > 100 µM | NCI-H23 > 100 µM | OVCAR-8 > 100 µM | CAKI-1 > 100 µM | HL-60 > 100 µM | NCI-H460 > 100 µM | Malme-3M > 100 µM | OVCAR-4 > 100 µM | UO-31 > 100 µM | KM12 > 100 µM | SK-MEL-5 2.78 µM | SF-539 > 100 µM | OVCAR-3 > 100 µM

CN(C)C(=S)OC(Cn1cncn1)c1ccc(Cl)cc1Cl (configuration not stated)
inactive: SNB-19 > 100 µM | IGROV-1 > 100 µM | HCC 2998 > 100 µM | NCI-H23 > 100 µM | OVCAR-8 > 100 µM | CAKI-1 > 100 µM | HL-60 > 100 µM | NCI-H460 > 100 µM | Malme-3M > 100 µM | OVCAR-4 > 100 µM | UO-31 > 100 µM | KM12 > 100 µM | SK-MEL-5 96.4 µM | SF-539 > 100 µM | OVCAR-3 > 100 µM

CN(C(=O)C12C3C4C1C1C2C3C41C(=O)C(C)(C)C)C(C)(C)C (configuration not stated)
inactive: SNB-19 > 100 µM | IGROV-1 > 100 µM | HCC 2998 > 100 µM | NCI-H23 > 100 µM | OVCAR-8 > 100 µM | CAKI-1 > 100 µM | HL-60 63.5 µM | Malme-3M > 100 µM | OVCAR-4 > 100 µM | UO-31 > 100 µM | KM12 > 100 µM | SK-MEL-5 > 100 µM | SF-539 > 100 µM | OVCAR-3 > 100 µM

O=S(O)CCCCSSCCCCS(=O)(=O)S
inactive: SNB-19 > 100 µM | IGROV-1 > 100 µM | HCC 2998 > 100 µM | NCI-H23 53.6 µM | OVCAR-8 37.8 µM | CAKI-1 > 100 µM | NCI-H460 64.3 µM | Malme-3M 17.6 µM | OVCAR-4 25.5 µM | UO-31 51.3 µM | KM12 67.6 µM | SK-MEL-5 14.2 µM | SF-539 98.6 µM | OVCAR-3 49.2 µM

COc1cc2cc3c4c(cc(OC)c(OC)c4c2cc1OC)CCN3
inactive: SNB-19 > 100 µM | IGROV-1 > 100 µM | HCC 2998 72.8 µM | NCI-H23 92 µM | OVCAR-8 76.4 µM | CAKI-1 67.1 µM | HL-60 18.2 µM | NCI-H460 21.5 µM | Malme-3M 44.5 µM | OVCAR-4 33.7 µM | UO-31 69.2 µM | KM12 31.6 µM | SK-MEL-5 23.8 µM | SF-539 14.6 µM | OVCAR-3 27.2 µM

COC(=O)C(=O)C(C(=O)C(=O)Nc1cccc(C(C)=O)c1)c1nc2ccccc2nc1O (configuration not stated)
inactive: SNB-19 > 100 µM | IGROV-1 > 100 µM | HCC 2998 > 100 µM | NCI-H23 > 100 µM | CAKI-1 > 100 µM | HL-60 > 100 µM | NCI-H460 > 100 µM | Malme-3M > 100 µM | OVCAR-4 > 100 µM | UO-31 > 100 µM | KM12 > 100 µM | SK-MEL-5 > 100 µM | SF-539 > 100 µM | OVCAR-3 > 100 µM

O=C(O)C[C@@H](Cl)[C@H](NC(=O)OCc1ccccc1)C(=O)O
inactive: SNB-19 > 100 µM | IGROV-1 > 100 µM | HCC 2998 > 100 µM | NCI-H23 > 100 µM | OVCAR-8 > 100 µM | CAKI-1 > 100 µM | HL-60 > 100 µM | NCI-H460 > 100 µM | Malme-3M > 100 µM | OVCAR-4 > 100 µM | UO-31 > 100 µM | KM12 > 100 µM | SK-MEL-5 > 100 µM | SF-539 > 100 µM | OVCAR-3 > 100 µM
